Assay results reported in patent US20240415914A1, “Water Dispersible Cannabinoid Compositions” (priority 2021, published 2024).
Read-outs that look alike come from different tables or passages of the source.

Experiments:
[1] = format: physicochemical; conditions: stored at room temperature (21-25° C.)
Experimental: At each time period, 0.05 g of powder was dissolved in 10 ml-15 of ethanol, diluted to fall within the analytical range, and injected into the LCMSMS for analysis.

[2] = Stability of cannabinoid and Vitamin E components of Beverage 2 (AB Red) stored at 8° C. and 21-25° C., LCMSMS over 570 days
Experimental: The LCMSMS was calibrated for 0-50 ng/ml cannabinoids with the same resin material used in the preparation of the concentrates. At each time period, 100 μml of beverage was diluted with 10 ml of methanol and injected into the LCMSMS for analysis.

CCCCCc1cc(O)c2c(c1)OC(C)(CCC=C(C)C)C=C2 (stereo not shown) [CBC, cannabichromene]
0.289 µg/mL: Stability of Cannabinoids in AB Red ([2]; 8° C., 1 days) | Stability of Cannabinoids in AB Red ([2]; 8° C., 18 days) | Stability of Cannabinoids in AB Red ([2]; 8° C., 120 days)
0.271 µg/mL: Stability of Cannabinoids in AB Red ([2]; 8° C., 540 days)
0.069 mg/g powder: Stability in Powder Concentrate (content by LCMSMS) ([1]; day 12) | Stability in Powder Concentrate (content by LCMSMS) ([1]; day 23) | Stability in Powder Concentrate (content by LCMSMS) ([1]; day 29) | Stability in Powder Concentrate (content by LCMSMS) ([1]; day 330) | Stability in Powder Concentrate (content by LCMSMS) ([1]; day 420) | Stability in Powder Concentrate (content by LCMSMS) ([1]; day 510) | Stability in Powder Concentrate (content by LCMSMS) ([1]; day 570)
0.27 µg/mL: Stability of Cannabinoids in AB Red ([2]; 21-25° C., 510 days) | Stability of Cannabinoids in AB Red ([2]; 21-25° C., 570 days)
0.282 µg/mL: Stability of Cannabinoids in AB Red ([2]; 8° C., 17 days) | Stability of Cannabinoids in AB Red ([2]; 8° C., 30 days) | Stability of Cannabinoids in AB Red ([2]; 8° C., 210 days) | Stability of Cannabinoids in AB Red ([2]; 8° C., 390 days) | Stability of Cannabinoids in AB Red ([2]; 8° C., 450 days)
0.286 µg/mL: Stability of Cannabinoids in AB Red ([2]; 8° C., 5 days) | Stability of Cannabinoids in AB Red ([2]; 8° C., 8 days)
0.073 mg/g powder: Stability in Powder Concentrate (content by LCMSMS) ([1]; day 3) | Stability in Powder Concentrate (content by LCMSMS) ([1]; day 15) | Stability in Powder Concentrate (content by LCMSMS) ([1]; day 16) | Stability in Powder Concentrate (content by LCMSMS) ([1]; day 450)
0.278 µg/mL: Stability of Cannabinoids in AB Red ([2]; 8° C., 60 days) | Stability of Cannabinoids in AB Red ([2]; 8° C., 330 days)
0.291 µg/mL: Stability of Cannabinoids in AB Red ([2]; 8° C., 24 days)
0.290 µg/mL: Stability of Cannabinoids in AB Red ([2]; 8° C., 0 days)
0.277 µg/mL: Stability of Cannabinoids in AB Red ([2]; 8° C., 420 days)
0.285 µg/mL: Stability of Cannabinoids in AB Red ([2]; 8° C., 3 days) | Stability of Cannabinoids in AB Red ([2]; 8° C., 12 days) | Stability of Cannabinoids in AB Red ([2]; 8° C., 180 days)
0.28 µg/mL: Stability of Cannabinoids in AB Red ([2]; 21-25° C., 1 days) | Stability of Cannabinoids in AB Red ([2]; 21-25° C., 2 days) | Stability of Cannabinoids in AB Red ([2]; 21-25° C., 5 days) | Stability of Cannabinoids in AB Red ([2]; 21-25° C., 8 days) | Stability of Cannabinoids in AB Red ([2]; 21-25° C., 9 days) | Stability of Cannabinoids in AB Red ([2]; 21-25° C., 12 days) | Stability of Cannabinoids in AB Red ([2]; 21-25° C., 15 days) | Stability of Cannabinoids in AB Red ([2]; 21-25° C., 16 days) | Stability of Cannabinoids in AB Red ([2]; 21-25° C., 17 days) | Stability of Cannabinoids in AB Red ([2]; 21-25° C., 23 days) | Stability of Cannabinoids in AB Red ([2]; 21-25° C., 25 days) | Stability of Cannabinoids in AB Red ([2]; 21-25° C., 26 days) | Stability of Cannabinoids in AB Red ([2]; 21-25° C., 90 days) | Stability of Cannabinoids in AB Red ([2]; 21-25° C., 180 days) | Stability of Cannabinoids in AB Red ([2]; 21-25° C., 240 days) | Stability of Cannabinoids in AB Red ([2]; 21-25° C., 390 days) | Stability of Cannabinoids in AB Red ([2]; 21-25° C., 420 days) | Stability of Cannabinoids in AB Red ([2]; 21-25° C., 450 days) | Stability of Cannabinoids in AB Red ([2]; 21-25° C., 480 days) | Stability of Cannabinoids in AB Red ([2]; 21-25° C., 540 days)
0.072 mg/g powder: Stability in Powder Concentrate (content by LCMSMS) ([1]; day 1) | Stability in Powder Concentrate (content by LCMSMS) ([1]; day 18) | Stability in Powder Concentrate (content by LCMSMS) ([1]; day 25) | Stability in Powder Concentrate (content by LCMSMS) ([1]; day 30) | Stability in Powder Concentrate (content by LCMSMS) ([1]; day 120) | Stability in Powder Concentrate (content by LCMSMS) ([1]; day 150) | Stability in Powder Concentrate (content by LCMSMS) ([1]; day 210) | Stability in Powder Concentrate (content by LCMSMS) ([1]; day 270)
0.29 µg/mL: Stability of Cannabinoids in AB Red ([2]; 21-25° C., 0 days) | Stability of Cannabinoids in AB Red ([2]; 21-25° C., 3 days) | Stability of Cannabinoids in AB Red ([2]; 21-25° C., 10 days) | Stability of Cannabinoids in AB Red ([2]; 21-25° C., 11 days) | Stability of Cannabinoids in AB Red ([2]; 21-25° C., 18 days) | Stability of Cannabinoids in AB Red ([2]; 21-25° C., 19 days) | Stability of Cannabinoids in AB Red ([2]; 21-25° C., 22 days) | Stability of Cannabinoids in AB Red ([2]; 21-25° C., 24 days) | Stability of Cannabinoids in AB Red ([2]; 21-25° C., 29 days) | Stability of Cannabinoids in AB Red ([2]; 21-25° C., 30 days) | Stability of Cannabinoids in AB Red ([2]; 21-25° C., 60 days) | Stability of Cannabinoids in AB Red ([2]; 21-25° C., 120 days) | Stability of Cannabinoids in AB Red ([2]; 21-25° C., 150 days) | Stability of Cannabinoids in AB Red ([2]; 21-25° C., 210 days) | Stability of Cannabinoids in AB Red ([2]; 21-25° C., 270 days) | Stability of Cannabinoids in AB Red ([2]; 21-25° C., 300 days) | Stability of Cannabinoids in AB Red ([2]; 21-25° C., 330 days)
0.287 µg/mL: Stability of Cannabinoids in AB Red ([2]; 8° C., 19 days) | Stability of Cannabinoids in AB Red ([2]; 8° C., 22 days) | Stability of Cannabinoids in AB Red ([2]; 8° C., 23 days) | Stability of Cannabinoids in AB Red ([2]; 8° C., 25 days) | Stability of Cannabinoids in AB Red ([2]; 8° C., 26 days) | Stability of Cannabinoids in AB Red ([2]; 8° C., 90 days)
0.281 µg/mL: Stability of Cannabinoids in AB Red ([2]; 8° C., 150 days)
0.071 mg/g powder: Stability in Powder Concentrate (content by LCMSMS) ([1]; day 2) | Stability in Powder Concentrate (content by LCMSMS) ([1]; day 8) | Stability in Powder Concentrate (content by LCMSMS) ([1]; day 10) | Stability in Powder Concentrate (content by LCMSMS) ([1]; day 11) | Stability in Powder Concentrate (content by LCMSMS) ([1]; day 22) | Stability in Powder Concentrate (content by LCMSMS) ([1]; day 26) | Stability in Powder Concentrate (content by LCMSMS) ([1]; day 180) | Stability in Powder Concentrate (content by LCMSMS) ([1]; day 300) | Stability in Powder Concentrate (content by LCMSMS) ([1]; day 480)
0.288 µg/mL: Stability of Cannabinoids in AB Red ([2]; 8° C., 9 days) | Stability of Cannabinoids in AB Red ([2]; 8° C., 10 days)
0.267 µg/mL: Stability of Cannabinoids in AB Red ([2]; 8° C., 510 days)
0.283 µg/mL: Stability of Cannabinoids in AB Red ([2]; 8° C., 16 days)
0.284 µg/mL: Stability of Cannabinoids in AB Red ([2]; 8° C., 11 days) | Stability of Cannabinoids in AB Red ([2]; 8° C., 29 days) | Stability of Cannabinoids in AB Red ([2]; 8° C., 270 days)
0.070 mg/g powder: Stability in Powder Concentrate (content by LCMSMS) ([1]; day 0) | Stability in Powder Concentrate (content by LCMSMS) ([1]; day 5) | Stability in Powder Concentrate (content by LCMSMS) ([1]; day 17) | Stability in Powder Concentrate (content by LCMSMS) ([1]; day 19) | Stability in Powder Concentrate (content by LCMSMS) ([1]; day 540)
0.280 µg/mL: Stability of Cannabinoids in AB Red ([2]; 8° C., 240 days) | Stability of Cannabinoids in AB Red ([2]; 8° C., 300 days)
0.292 µg/mL: Stability of Cannabinoids in AB Red ([2]; 8° C., 2 days) | Stability of Cannabinoids in AB Red ([2]; 8° C., 15 days)
0.266 µg/mL: Stability of Cannabinoids in AB Red ([2]; 8° C., 570 days)
0.274 µg/mL: Stability of Cannabinoids in AB Red ([2]; 8° C., 480 days)
0.068 mg/g powder: Stability in Powder Concentrate (content by LCMSMS) ([1]; day 9) | Stability in Powder Concentrate (content by LCMSMS) ([1]; day 24) | Stability in Powder Concentrate (content by LCMSMS) ([1]; day 60) | Stability in Powder Concentrate (content by LCMSMS) ([1]; day 90) | Stability in Powder Concentrate (content by LCMSMS) ([1]; day 240) | Stability in Powder Concentrate (content by LCMSMS) ([1]; day 360) | Stability in Powder Concentrate (content by LCMSMS) ([1]; day 390)
